Assay: Transcutaneous passage kinetics of calixarene in Franz cell
Type: in vitro ADME, pig
Conditions: released from 1 ml nanoemulsion loaded with 4 mg/g calixarene; 24 hours exposure; occlusive; HPLC LD=17 ng/ml, LQ=52 ng/ml

For “1,3,5-O-Me-2,4,6-OCH2COOH-p-tert-butylcalix[6]arene [calixarene]”, the “transcutaneous passage of calixarene” value was “did not pass through the skin”.

— patent publication US8987334B2, “Cosmetic and pharmaceutical formulations of calixarene molecules” (priority 2008, dated 2015)
